Measured values reported in patent US10100030B2 (Kissei Pharmaceutical Co., Ltd., priority 2013, dated 2018).
Like-named read-outs stand apart in the source and are kept apart here.

Key:
human NK1 receptor [1] = target: T1, human NK1 receptor (Homo sapiens (Human), UniProt P25103); test: Inhibitory effect on human NK1 receptor (substance P-induced increase in intracellular calcium concentration); format: cell-based; details: HEK-293T; substance P 1 μM, compound 0.1 μM; human NK1 receptor-expressing 293T cells; read-out: SPRR (Substance P-Response Remaining)
Protocol: Inhibitory Effect on Human NK1 Receptor
(1) Preparation of Human NK1 Receptor-expressing Cells
Human NK1 receptor-expressing cells were prepared by the same methods as those described in 2-3 and 2-4 of Test Example 1.
(2) Study on Inhibitory Effect on Increase in Intracellular Calcium Concentration
The human NK1 receptor-expressing cells were washed with 300 μL/well of a washing solution (20 mM HEPES/Hank's Balanced Salt Solution (HBSS) […]). A fluorescent calcium indicator (Fluo-4 Direct Calcium Assay Kit, Life Technologies, containing 0.42 mM probenecid and 0.1% bovine serum albumin, prepared according to the protocol of the product) was added to the wells at 150 μL/well, and the plate was incubated at 37° C. for 30 minutes in an incubator. Then, DMSO solutions of a test compound, which were prepared at an 80-time higher concentration using 100% dimethyl sulfoxide (DMSO), were added to the wells at 2.5 μL/well (final concentrations of 0.1, 1 and 10 μM), and the solutions were mixed. Then, the plate was further incubated at 37° C. for 30 minutes in an incubator. After 30 minutes, the intracellular calcium concentrations were measured immediately.
The intracellular calcium concentrations were each measured as a fluorescent signal using FDSS (registered trademark) 7000 (Hamamatsu Photonics). A substance P (Peptide Institute, Inc.) solution which was prepared at 0.4 μM or 4 μM using an assay buffer (20 mM HEPES/Hank's Balanced Salt Solution (HBSS) pH 7.3, containing 0.1% bovine serum albumin) was added automatically to each well at 50 μL/well (final concentration of 0.1 or 1 μM) 10 seconds after starting reading, and the fluorescent signal was measured up to 120 seconds.
The intracellular calcium concentration (%) of the cells to which a test compound was added was calculated by the equation below, where the fluorescent signal of the group to which the vehicle (DMSO) was added was regarded as 100%, and the fluorescent signal before the addition of substance P was regarded as 0%. Intracellular calcium concentration(%)=(Fluorescent signal of test compound addition group)/(Fluorescent signal of vehicle addition group)×100
The intracellular calcium concentration (%) calculated was regarded as the remaining agonist activity of substance P (Substance P-Response Remaining: SPRR). In the table, Ex. No. means the Example number. SPRR (%) is the value obtained when the concentration of substance P was 1 μM and the concentration of the compound was 0.1 μM.

NK1 receptor = NK1 receptor (Meriones unguiculatus (Mongolian jird) (Gerbillus unguiculatus), UniProt Q5DUB1); test: Effect on GR73632-induced foot-tapping; format: in vivo; details: 0.3 mg/kg from the jugular vein, GR73632 after four hours, male gerbil
Protocol: (1) Effect on Foot-tapping
(§1) A male gerbil (Japan SLC) was anesthetized with isoflurane, and 0.3 mg/kg of a test compound was administered from the jugular vein. After four hours, GR73632 (5 pmol/5 μl), which is an NK1 receptor agonist, was administered into the cerebral ventricle at the part 1 mm lateral to and 4.5 mm below the bregma in the head, under anesthesia with isoflurane. After the administration, the gerbil was moved to an observation cage, and the foot-tapping period during five minutes after the recovery of the righting reflex was measured. The foot-tapping inhibition rate (%) of each test compound was calculated by the following equation. Foot-tapping inhibition rate (%)={1−(Foot-tapping period when test compound was administered)/(Foot-tapping period when solvent was administered)}×100 (2) Measurement of Drug Concentrations
(§2) In the table, Ex. No. means the Example number. Inhibition (%) is the foot-tapping inhibition rate, and Conc. (nM) is the drug concentration in the brain.

human NK1 receptor [2] = target: T1, human NK1 receptor; test: Affinity for human NK1 receptor (125I-substance P receptor binding test); details: membrane fraction of human NK1 receptor-expressing 293T cells; read-out: IC50 (concentration required for 50% inhibition of 125I-substance P binding)
Protocol: Affinity for Human NK1 Receptor
(3) Measurement of Binding Affinity to Human NK1 Receptor
(3-1) Preparation of Membrane Fraction from Human NK1 Receptor-expressing Cells
Human NK1 receptor-expressing cells were prepared in a 175 cm^2 culture flask (Nippon Becton Dickinson). The formation of a complex of the human NK1 receptor expression plasmid and Lipofectamine 2000 was performed by calculating the culture area ratio and increasing the scale of the method described in the above 2-4 by the ratio. The human NK1 receptor-expressing cells were collected in a buffer solution for the membrane fraction preparation (50 mM Tris (Wako Pure Chemical). 120 mM sodium chloride (Wako Pure Chemical Industries), 5 mM potassium chloride (Wako Pure Chemical Industries), 1 mM ethylenediaminetetraacetic acid (Sigma), 0.002 mg/mL chymostatin (Peptide Institute), 0.04 mg/ bacitracin (Wako Pure Chemical Industries), 0.005 mg/mL phosphoramidon (Peptide Institute) and 0.5 mM phenylmethylsulfonyl fluoride (Wako Pure Chemical Industries), pH7.4) and centrifuged at 1,880 g for 10 minutes, and the cell sediment was suspended in the buffer solution for the membrane fraction preparation. After freezing and thawing the cells once, the cells were homogenized using a Dounce-type homogenizer (cooled on ice, 1000 rpm, 20 times). The homogenized cell suspension was centrifuged at 20,000 rpm for 10 minutes, and the supernatant was removed to obtain cell sediment. The cell sediment was suspended again in the buffer solution for the membrane fraction preparation and homogenized using a Dounce-type homogenizer (cooled on ice, 1000 rpm, 30 times). The cell suspension was centrifuged at 20,000 rpm for 10 minutes, and the supernatant was removed to obtain cell sediment. The same homogenization and centrifugation were repeated again, and final cell sediment was obtained. The final cell sediment was suspended in a buffer solution for the receptor binding test (50 mM Tris (Wako Pure Chemical Industries), 3 mM manganese chloride (Wako Pure Chemical Industries), 0.002 mg/mL chymostatin (Peptide Institute), 0.04 mg/bacitracin (Wako Pure Chemical Industries) and 0.02% bovine serum albumin (Sigma), pH 7.4), and the protein concentration was measured using BCA Protein Assay Kit (Pierce).
(3-2) Receptor Binding Test
The buffer solution for the receptor binding test was dispensed to the wells of a 96-well assay plate (Greiner) at 22.5 μL/well. DMSO solutions of a test compound, which were prepared at an 80-time higher concentration using 100% dimethyl sulfoxide (DMSO), were added to the wells at 2.5 μL/well (final concentrations of 1 nM to 100 nM), and the solutions were mixed. As a radiolabeled ligand, ^125I-substance P (Substance P, [^125I]Tyr^8-, PerkinElmer) was used. ^125I-substance P was diluted with the buffer solution for the receptor binding test to a concentration resulting in […] and added to the 96-well assay plate, and the solutions were mixed. The membrane fraction prepared from the human NK1 receptor-expressing cells was diluted with the buffer solution for the receptor binding test to a concentration resulting in 8 to 10 μg/well, suspended until the suspension became in such a homogenous state that the suspension could flow through as 27G injection needle smoothly and then added to the 96-well assay plate at 150 μL/well. Then, the plate was incubated at room temperature for 60 minutes while shaking the plate. The reaction solutions were suction-filtered. through a multiscreen 96-well filter plate (Millipore) which had been pre-treated with 0.3% polyethyleneimine, and the reaction was terminated by washing with a washing solution (50 mM Tris and 0.02% bovine serum albumin, pH 7.4) four times. The bottom of the microplate was dried at 60° C., and then 100 μL/well of MicroScint 20 (PerkinElmer) was dispensed to the wells. The top of the plate was sealed with TopSeal A (PerkinElmer), and the plate was shaken for 5 to 10 minutes. […]

CYP3A4 = CYP3A4 (Homo sapiens (Human), UniProt P08684)
Protocol: Enzyme reaction was performed by incubating in a potassium phosphate buffer solution (pH 7.4) containing 1 nM to 20 μM test compound, 3.2 mM magnesium chloride, 0.2 pmol human CYP3A4 (BD Biosciences), 0.5 mM reduced nicotinamide adenine dinucleotide phosphate (NADPH) and 3 μM Luciferin-IPA (Promega) at 37° C. for 10 minutes. The volume of the reaction solution was 50 μL/well. The 30-minute pre-incubation group was incubated at 37° C. for 30 minutes before adding the substrate, the Luciferin-IPA solution (12.5 μL/well). At the end of the enzyme reaction, 50 μL/well of a Luciferin detection reagent (Promega) was added to the wells, and the plate was left at room temperature for 20 minutes. Then, the emission intensities were measured with Infinite M1000 (TECAN). The enzyme activities (%) relative to the value of the group to which the test compound was not added were calculated.

[3] = Measurement of drug concentrations in the brain after foot-tapping test; format: in vivo; details: male; 0.3 mg/kg iv, after foot-tapping was finished, gerbil brain; read-out: Conc. (drug concentration in the brain)
Protocol: as §1
After foot-tapping was finished, laparotomy was performed immediately under anesthesia with ether, and a blood sample was taken from the abdominal vena cava. At the same time, the brain was extracted. Through a quantitative analysis using liquid chromatography-mass spectrometry (LC/MS), the concentrations of the test compound in the plasma and the brain were measured.
as §2

T1 sequence (P25103 whole entry): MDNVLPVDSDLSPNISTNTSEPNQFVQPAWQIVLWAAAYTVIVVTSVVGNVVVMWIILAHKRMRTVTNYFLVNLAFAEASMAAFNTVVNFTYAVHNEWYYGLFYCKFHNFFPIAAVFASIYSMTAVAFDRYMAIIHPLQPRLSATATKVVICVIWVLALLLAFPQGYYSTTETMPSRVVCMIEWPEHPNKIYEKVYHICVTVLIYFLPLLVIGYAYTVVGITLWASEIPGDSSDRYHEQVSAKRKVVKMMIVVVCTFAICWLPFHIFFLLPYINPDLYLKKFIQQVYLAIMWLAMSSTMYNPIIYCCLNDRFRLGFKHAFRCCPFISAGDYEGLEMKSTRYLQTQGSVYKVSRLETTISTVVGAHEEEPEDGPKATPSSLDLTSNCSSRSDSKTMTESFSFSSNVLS
CYP3A4, sequence (P08684 whole entry): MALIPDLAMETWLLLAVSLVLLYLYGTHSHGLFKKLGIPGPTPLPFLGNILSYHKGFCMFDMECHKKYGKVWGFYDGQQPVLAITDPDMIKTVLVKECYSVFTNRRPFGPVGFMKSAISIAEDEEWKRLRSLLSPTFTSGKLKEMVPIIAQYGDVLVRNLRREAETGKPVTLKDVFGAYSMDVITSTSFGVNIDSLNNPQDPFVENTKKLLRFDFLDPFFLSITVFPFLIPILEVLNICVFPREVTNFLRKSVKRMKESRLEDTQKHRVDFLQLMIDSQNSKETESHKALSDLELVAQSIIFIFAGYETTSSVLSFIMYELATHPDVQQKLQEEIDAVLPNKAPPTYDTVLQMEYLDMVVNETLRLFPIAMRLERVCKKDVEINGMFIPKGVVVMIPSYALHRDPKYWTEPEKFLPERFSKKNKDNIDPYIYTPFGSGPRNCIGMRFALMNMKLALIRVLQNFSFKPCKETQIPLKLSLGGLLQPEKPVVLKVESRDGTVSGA
NK1 receptor, sequence (Q5DUB1 whole entry): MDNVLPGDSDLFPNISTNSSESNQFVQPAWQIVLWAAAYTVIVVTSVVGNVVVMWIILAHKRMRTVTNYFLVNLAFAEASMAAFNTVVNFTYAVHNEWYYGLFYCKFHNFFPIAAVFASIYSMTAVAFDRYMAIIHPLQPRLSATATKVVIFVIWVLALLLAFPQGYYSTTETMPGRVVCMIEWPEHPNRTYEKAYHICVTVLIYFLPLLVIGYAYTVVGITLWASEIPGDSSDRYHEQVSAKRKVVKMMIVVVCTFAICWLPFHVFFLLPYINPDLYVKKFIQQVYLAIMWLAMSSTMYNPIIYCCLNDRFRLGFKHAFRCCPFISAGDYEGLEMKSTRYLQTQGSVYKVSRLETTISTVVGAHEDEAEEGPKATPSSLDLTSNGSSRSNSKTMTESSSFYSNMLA

For `Cc1cc(F)ccc1-c1cc(N2CCC(C(C)C(=O)O)CC2)nc(C#N)c1N(C)C(=O)C(C)(C)c1cc(C(F)(F)F)cc(C(F)(F)F)c1` (stereo not shown) [Example 8], the remaining activity at 0.1 µM (human NK1 receptor [1]) was 69%, the “Inhibition (foot-tapping inhibition rate)” value (NK1 receptor) was 100% and the IC50 (human NK1 receptor [2]) was 2.25 nM. For the same compound, the IC50 (CYP3A4; human, 10 min, pH 7.4) was 1400 nM and the concentration at 4 h [3] was 213 nM.

`Cc1cc(F)ccc1-c1cc(N2CCC([C@@H](C)C(=O)O)CC2)ncc1N(C)C(=O)C(C)(C)c1cc(C(F)(F)F)cc(C(F)(F)F)c1` [Example 12, (R)-2-[5′-{[2-(3,5-Bistrifluoromethylphenyl)-2-methylpropionyl]methylaminol}-4′-(4-fluoro-2-methylphenyl)-3,4,5,6-tetrahydro-2H-[1,2]bipyridinyl-4-yl]propionic acid] showed an IC50 (human NK1 receptor [2]) of 7.44 nM and an IC50 (CYP3A4) of 4600 nM.
